The values below come from patent US7214766B2 (priority 1998, dated 2007).

Where two headings read alike, the source gives them in different places. No end group written: not given here.

For orientation: share remaining means what is left of the initial amount, in per cent. By inhibition is commonly meant the share of the control response that was lost under treatment.

Series [1] relates to proteases present in whole cell extract (WCE). The series can be described thus: Stability of peptides to proteases in whole cell extract (WCE), HPLC. It is filed as in vitro ADME, Kentucky 14 tobacco. The following applies: peptide alone. The protocol:
(§1) Whole cell extract (WCE) was prepared by grinding one gram of Kentucky 14 tobacco leaf tissue in liquid nitrogen, followed by extraction with 3 mL of 100 mM Tris-HCl buffer, pH 7.5, 50 mM NaCl. The mixture was clarified by spinning in a microcentrifuge (14,000 r.p.m., 5 minutes). The supernatant (WCE) was kept frozen as aliquots at −80° C. until required for an assay. Fifty micrograms of each peptide was incubated with different amounts of WCE in 50 mM Tris-HCl buffer, pH 7.5, total volume 50 microliters, for one hour at 37° C. The reaction was stopped by adding 1% trifluoroacetic acid (TFA). A sample of the reaction mixture (20 μL) was injected onto a Vydac C4 column (4.6×250 mm) in a Waters HPLC system with 515 pumps, 486 detector and Millenium software. The sample was eluted with a gradient of 0.1% TFA in water to 60% acetonitrile in 0.1% TFA. The area of the peak corresponding to the undigested peptide was integrated and compared with the equivalent peak from a 0% WCE control.
(§2) Assays for WCE protease degradation were performed as described in Example 8 except that one of the samples represented Magainin 2 that was mixed with Rev4 before the addition of WCE. The amounts of Magainin 2 and Rev4 remaining in the mixture were determined by HPLC as described for Examples 7 and 8.

Experiment in series [2]: as above
Format: in vitro ADME, Kentucky 14 tobacco. The settings on record: other tissue homogenate, peptide alone, read-out: % Peptide Remaining Intact after 1 Hr. The method, then:
as §1, §2

In series [3] the test system is proteases present in whole cell extract (WCE). The series can be described thus: Protection of Magainin 2 from degradation by WCE (Magainin 2 mixed with Rev4). Format: in vitro ADME, Kentucky 14 tobacco. The settings on record: in Rev4 + Magainin 2 Mix. The method, then: as §1, §2
The subject of series [4] is E. coli. The following applies: Falla and Hancock 1997; cited from earlier work.
In series [5] the test system is Pseudomonas aeruginosa. The settings on record: Falla and Hancock 1997; cited from earlier work.
The test system of series [6] is Candida albicans. The following applies: Falla and Hancock 1997; cited from earlier work.
The subject of series [7] is Staphylococcus aureus. The following applies: Falla and Hancock 1997; cited from earlier work.
The target of series [8] is T1, Chymotrypsin (Bos taurus, UniProt P00766).
T1 construct: purchased
The series is described as follows: Inhibition of protease digestion of fluorescent labeled casein: chymotrypsin. The following applies: for Chymotrypsin Activity (Fluorescence Units) Mean: no-peptide control 375. Format: biochemical. The protocol: (§3) The ability of Rev4 to inhibit four different classes of proteases was tested using fluorescent labeled casein as substrate under the following conditions:
(§4) Each protease was incubated with substrate (5 μg/mL fluorescent labeled casein; Molecular Probes Inc., Eugene, Oreg.) and peptide in a total volume of 200 μL in a 96-well microtiter plate. Before use, papain was activated with cysteine (Arnon, 1970, Methods in Enzymology 19:226–44). After incubation at room temperature for one hour, fluorescence due to casein digestion was measured in a Luminescence Spectrometer (LS50B, Perkin Elmer Ltd., England) with an excitation wavelength of 505 nm and an emission wavelength of 513 nm. The blank control contained the substrate, buffer and peptide but lacked the protease.
The peptides described in EXAMPLE 12 were tested for their effects on the action of chymotrypsin on casein using the methods described in EXAMPLE 10.

The subject of series [9] is Peronospora tabacina. The series can be described thus: Tobacco blue mold spore germination assay. It is filed as cell-based. The following applies: for % Germination (mean +/− sem): final concentration of 2 μg/mL, control 76.6 +/− 11.2; for % Control: germination as % of no-peptide control, 2 μg/mL; for antifungal activity (in words): refers to EXAMPLE 12. The method, then:
Tobacco blue mold (Peronospora tabacina) was used to compare the antifungal activity of Rev4 with that of MYP30. Spores of Peronospora tabacina were harvested from infected tobacco leaf with sterile water and washed three times. The spore suspension was diluted to 2,000 spores per mL. Peptide solution (2 μL) was added to spore suspension (48 μL) in a 96-well microtiter plate. After incubation in the dark at room temperature for 24 hours, the number of germinated spores was determined microscopically.
The peptides described as SEQ. ID Nos. 4, 5, 6, 7 and 8 in Examples 1, 3, 4, 5 and 6 were tested for antifungal activity as described in Example 11.

The test system of series [10] is Verticillium dahliae racel. The series is described as follows: Minimum concentration to completely inhibit spore germination, Verticillium. Format: cell-based. The following applies: 5,000 spores per mL, triplicate. From the text: (§5) The antifungal activity of Rev4 and related peptides was also compared using two tomato pathogens, Verticillium dahliae racel and Alternaria alternata f.sp. lycopersici. Spores were harvested from pure cultures grown on V8 medium, diluted to 5,000 spores per mL, and tested against dilution series of peptides in 96-well plates as described in U.S. Pat. No. 5,424,395.

Series [11] relates to Alternaria alternata f.sp. lycopersici. The series can be described thus: Minimum concentration to completely inhibit spore germination, Alternaria. It is filed as cell-based. The settings on record: 5,000 spores per mL, triplicate.
From the text: as §5

Series [12] has as its target T2, Pepsin (Sus scrofa, UniProt P00791).
T2 construct: purchased
The series can be described thus: Inhibition of protease digestion of fluorescent labeled casein: pepsin. Format: biochemical. The following applies: pH 2, pepsin 0.01 mg/mL, pH2.0, read-out: % Inhibition of Proteolysis. The method, then: as §3, §4

In series [13] the target is T3, Papain (Carica papaya, UniProt P00784).
T3 construct: purchased
T3 sequence (P00784 134-345): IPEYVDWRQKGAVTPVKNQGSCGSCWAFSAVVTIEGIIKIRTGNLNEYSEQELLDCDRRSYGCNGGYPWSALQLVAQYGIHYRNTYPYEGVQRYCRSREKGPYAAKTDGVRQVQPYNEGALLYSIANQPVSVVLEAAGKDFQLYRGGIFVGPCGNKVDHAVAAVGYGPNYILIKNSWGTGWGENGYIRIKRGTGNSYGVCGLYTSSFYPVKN
The series can be described thus: Inhibition of protease digestion of fluorescent labeled casein: papain. Format: biochemical. The settings on record: pH 6.2, papain 0.01 mg/mL, pH6.2, read-out: % Inhibition of Proteolysis. The method, then: as §3, §4

Series [14] relates to proteases in the intercellular fluid of plant leaves. The following applies: cited from earlier work.

T2 sequence (P00791 60-385): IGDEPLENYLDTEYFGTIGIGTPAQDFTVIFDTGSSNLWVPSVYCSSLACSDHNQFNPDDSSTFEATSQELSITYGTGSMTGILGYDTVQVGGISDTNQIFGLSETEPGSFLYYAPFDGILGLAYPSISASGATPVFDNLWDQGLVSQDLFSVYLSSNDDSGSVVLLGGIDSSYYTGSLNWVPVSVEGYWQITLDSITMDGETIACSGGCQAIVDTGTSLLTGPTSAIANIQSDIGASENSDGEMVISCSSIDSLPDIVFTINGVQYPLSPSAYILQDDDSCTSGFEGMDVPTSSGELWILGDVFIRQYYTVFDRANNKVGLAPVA

With “H-GIGKFLHSAKKFGKAFVGEIMNS-OH [Magainin 2, reference compound]”, the “% Peptide Remaining Intact after 1 Hr.” value in series [1] (45% WCE) was found to be 0.4%; in series [1] (60% WCE), 0.3%; in series [3] (15% WCE), 89.7%; in series [3] (30% WCE) it was 87.6%; in series [3] (60% WCE), 73.1%; in series [3] (90% WCE) it was 56.3%. Besides, the amount remaining at 1 h, 1 mg/mL was 10.9% in [2] (pH 7.5, 15% WCE); 0.3% in series [2] (pH 7.5, 30% WCE); 0.4% in series [2] (pH 7.5, 90% WCE).
On to “ILKKWPWWPWRR [CP-11, synthetic peptide based on indolicidin (Falla and Hancock)]”, for which, in [4], the “activity against E. coli relative to indolicidin (in words)” value is reported as “better activity”. Also, the “activity against Pseudomonas aeruginosa relative to indolicidin (in words)” value in series [5] is “better activity”. Also, the “activity against Candida albicans relative to indolicidin (in words)” value in series [6] is on record as “better activity”. For the same substance, the “activity against Staphylococcus aureus relative to indolicidin (in words)” value in series [7] is given as “reduced activity”.
“Ile Leu Lys Gly Phe Pro Gly Phe Pro Arg Arg Lys (ILKGFPGFPRRK-NH2) [SEQ. ID NO. 8, derivative of indolicidin in which Trp residues were replaced by Phe and a Pro residue was deleted]”: the “protection of fluorescent-labeled casein from chymotrypsin (in words)” value (from here on “protection of fluorescent-labeled casein”) in series [8] is reported as “did not have this protective effect”. Besides, the “Chymotrypsin Activity (Fluorescence Units) Mean” value (“Chymotrypsin Activity” for short) in series [8] (peptide 5 μg/mL) stood at 385 Fluorescence Units. The “Chymotrypsin Activity” value in series [8] (peptide 20 μg/mL) is listed as 321 Fluorescence Units. For the same substance, in [9], the “% Germination (mean +/− sem)” value is listed as 17.3 +/− 3.5%, the “% Control” value is 23% and the “antifungal activity (in words)” value is “had retained antifungal activity”.
With “Ile Leu Pro Phe Lys Phe Pro Phe Phe Pro Phe Arg Arg (ILPFKFPFFPFRR-NH2) [SEQ. ID NO. 7, indolicidin in which the Trp residues were replaced with Phe]”, the “protection of fluorescent-labeled casein” value in series [8] was “did not have this protective effect”. For the same substance, the “Chymotrypsin Activity” value in series [8] (peptide 5 μg/mL) is 386 Fluorescence Units. Besides, the “Chymotrypsin Activity” value in [8] (peptide 20 μg/mL) turned out to be 385 Fluorescence Units. For the same substance, the “minimum concentration required to completely inhibit spore germination for at least 48 hours” value in series [10] worked out at 50 µg/mL. In series [9], the “% Germination (mean +/− sem)” value is listed as 8.8 +/− 5.4%, the “% Control” value amounted to 11% and the “antifungal activity (in words)” value was “had retained antifungal activity”. The “minimum concentration required to completely inhibit spore germination for at least 48 hours” value in [11] was 100 µg/mL.
Take “RRWPWWPWKWPLI-NH2 [Rev4, Arg Arg Trp Pro Trp Trp Pro Trp Lys Trp Pro Leu Ile]”: the inhibition at 25 µg/mL in [12] (Rev4 25 μg/ml) was determined as 3%. Besides, the inhibition at 50 µg/mL in [12] (Rev4 50 μg/ml) is 0%. The inhibition at 100 µg/mL in [12] (Rev4 100 μg/ml) is 0%. Further, the inhibition at 2.5 µg/mL in [8] (pH 8, Rev4 2.5 μg/ml, chymotrypsin 0.01 mg/mL, pH8.0, read-out: % Inhibition of Proteolysis) was determined as 16%; in series [13] (Rev4 2.5 μg/ml), 29%. Also, the inhibition at 5 µg/mL in series [8] (pH 8, Rev4 5 μg/ml, chymotrypsin 0.01 mg/mL, pH8.0, read-out: % Inhibition of Proteolysis) came out at 42%; in series [13] (Rev4 5 μg/ml) it was 72%. Moreover, the inhibition at 10 µg/mL in [8] (pH 8, Rev4 10 μg/ml, chymotrypsin 0.01 mg/mL, pH8.0, read-out: % Inhibition of Proteolysis) amounted to 75%; in [13] (Rev4 10 μg/ml), 93%. Besides, the inhibition at 20 µg/mL in series [8] (pH 8, Rev4 20 μg/ml, chymotrypsin 0.01 mg/mL, pH8.0, read-out: % Inhibition of Proteolysis) was 97%; in series [13] (Rev4 20 μg/ml), 99%.
With “RRWPWWPWKWPLIGGGYDPAPPPPPP [SEQ. ID NO. 6, Rev4 with a C-terminal extension of 13 amino acids]”, the “protection of fluorescent-labeled casein” value in [8] was “protected fluorescent-labeled casein from the action of chymotrypsin”. The “Chymotrypsin Activity” value is 212 Fluorescence Units in [8] (peptide 5 μg/mL) and 45 Fluorescence Units in [8] (peptide 20 μg/mL). The “minimum concentration required to completely inhibit spore germination for at least 48 hours” value in [10] turned out to be 23 µg/mL; in series [11], 50 µg/mL. Further, the “% Germination (mean +/− sem)” value in [9] is listed as 5.7 +/− 9.8%. In addition, the “% Control” value in [9] was 7%.
Turning to “Ser Arg Arg Trp Pro Trp Trp Pro Trp Lys Trp Pro Leu Ile (SRRWPWWPWKWPLI-OH) [SEQ. ID NO. 5, analog of Rev4 in which an extra Ser was added to the N-terminus]”, the “protection of fluorescent-labeled casein” value in series [8] is reported as “protected fluorescent-labeled casein from the action of chymotrypsin”. Also, in [8] (peptide 5 μg/mL), the “Chymotrypsin Activity” value is listed as 162 Fluorescence Units. The “Chymotrypsin Activity” value in [8] (peptide 20 μg/mL) came out at 44 Fluorescence Units. Moreover, the “minimum concentration required to completely inhibit spore germination for at least 48 hours” value in series [10] was 50 µg/mL. For the same substance, in series [9], the “% Germination (mean +/− sem)” value was 6.8 +/− 6.3% and the “% Control” value stood at 9%.
In the case of “cecropin B: antimicrobial peptide cecropin B (KWKVFKKIEKMGRNIRNGIVKAGPAIAVLGEAKAL; ends and bridges not checked; UniProt P01508 27-61, looked up)”, the “degradation / stability against proteases of plant intercellular fluid (in words)” value in series [14] is “rapidly degraded”.
